Assay results taken from the supplement of paper PMC10627819.

Experiments:
S. aureus Newman = experiment: Bliss interaction score (quartile over a dose matrix) (fitness difference); higher = more antagonism (negative = synergy)
Method in brief: (§1)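 Fitness was derived from optical density at entry into stationary phase, divided by the robust mean of the no-drug wells on the same plate. That reading was taken as OD595, and the ratio was capped at 1. Single-drug fitness was inferred from the combination data. The Bliss score, observed fitness minus the expected product of single-drug fitness, was summarised as quartiles over technical, biological and donor/recipient replicates.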

S. pneumoniae D39V [1] = experiment: as above
Method in brief: as §1

B. subtilis 168 = experiment: as above
Method in brief: as §1

S. aureus DSM 20231 = experiment: as above
Method in brief: as §1

S. pneumoniae D39V [2] = experiment: fitness (endpoint OD595 vs no drug) (fraction); higher = more growth
Method in brief: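 In 384-well plates at 37 °C, cultures began at OD595 0.01 in 30 µl, with 55 µl used for S. pneumoniae. OD595 readings every 30 min for 14 h were corrected by the first reading. Fitness divides the stationary-phase transition optical density by the robust mean of no-drug control wells. The result is capped at 1.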
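Wherever Bliss interaction score (quartile over a dose matrix) is given: first quartile when negative (synergy) and third quartile when positive (antagonism).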

C[C@@H](O)[C@H]1C(=O)N2C(C(=O)O)=C(SCCNC=N)C[C@H]12 [Imipenem] + C[C@H]1COc2c(N3CCN(C)CC3)c(F)cc3c(=O)c(C(=O)O)cn1c23 [Levofloxacin]
Settings	Bliss interaction score
B. subtilis 168	-0.17
S. aureus DSM 20231	0.025
S. aureus Newman	0.0287
S. pneumoniae D39V [1]	-0.0377

fitness, S. pneumoniae D39V [2]
Settings	first compound 0.005 µg/mL	first compound 0.0065 µg/mL	first compound 0.01 µg/mL	first compound 0.013 µg/mL	first compound 0.02 µg/mL	first compound 0.026 µg/mL
partner 0.1725 µg/mL	0.958	–	0.948	–	0.963	–
partner 0.2 µg/mL	–	0.886	–	0.885	–	0.871
partner 0.345 µg/mL	0.894	–	0.877	–	0.826	–
partner 0.4 µg/mL	–	0.77	–	0.778	–	0.713
partner 0.69 µg/mL	0.571	–	0.615	–	0.576	–
partner 0.8 µg/mL	–	0.227	–	0.361	–	0.329

C[C@@H](O)[C@H]1C(=O)N2C(C(=O)O)=C(SCCNC=N)C[C@H]12 [Imipenem] + O=C1CN(/N=C/c2ccc([N+](=O)[O-])o2)C(=O)N1 [Nitrofurantoin]
Settings	Bliss interaction score
B. subtilis 168	0.0986
S. aureus DSM 20231	0.0253
S. aureus Newman	-0.0377
S. pneumoniae D39V [1]	0.049

fitness, S. pneumoniae D39V [2]
Settings	first compound 0.005 µg/mL	first compound 0.0065 µg/mL	first compound 0.01 µg/mL	first compound 0.013 µg/mL	first compound 0.02 µg/mL	first compound 0.026 µg/mL
partner 1.285 µg/mL	0.947	–	0.967	–	0.97	–
partner 2 µg/mL	–	0.931	–	0.882	–	0.842
partner 2.57 µg/mL	0.946	–	0.944	–	0.955	–
partner 4 µg/mL	–	0.912	–	0.914	–	0.804
partner 8 µg/mL	–	0.763	–	0.728	–	0.72

S. pneumoniae D39V [2], partner 5.14 µg/mL, one replicate
Settings	fitness
first compound 0.005 µg/mL	0.887
first compound 0.01 µg/mL	0.941
first compound 0.02 µg/mL	0.928

O=C(O[C@@H]1Cc2c(O)cc(O)cc2O[C@@H]1c1cc(O)c(O)c(O)c1)c1cc(O)c(O)c(O)c1 [EGCG] + Clc1ccc(COC(Cn2ccnc2)c2ccc(Cl)cc2Cl)c(Cl)c1 [Miconazole]
Settings	Bliss interaction score
B. subtilis 168	-0.0649
S. aureus DSM 20231	0.278
S. aureus Newman	0.167
S. pneumoniae D39V [1]	0.0773

fitness, S. pneumoniae D39V [2]
Settings	partner 1.073 µg/mL	partner 1.25 µg/mL	partner 2.145 µg/mL	partner 2.5 µg/mL	partner 4.29 µg/mL	partner 5 µg/mL
first compound 12.5 µg/mL	0.956	0.913	≥ 1	0.805	0.824	0.858
first compound 25 µg/mL	0.983	≥ 1	≥ 1	0.923	0.834	0.89
first compound 50 µg/mL	0.987	0.952	0.984	0.86	0.98	0.933

CC[C@H]1OC(=O)[C@H](C)[C@@H](O[C@H]2C[C@@](C)(OC)[C@@H](O)[C@H](C)O2)[C@H](C)[C@@H](O[C@@H]2O[C@H](C)C[C@H](N(C)C)[C@H]2O)[C@](C)(OC)C[C@@H](C)C(=O)[C@H](C)[C@@H](O)[C@]1(C)O [Clarithromycin] + C[C@@H]1O[C@@H]1P(=O)(O)O [Fosfomycin]
Settings	Bliss interaction score
B. subtilis 168	0.0504
S. aureus DSM 20231	-0.0843
S. aureus Newman	-0.114
S. pneumoniae D39V [1]	0.0544

fitness, S. pneumoniae D39V [2], one replicate
Settings	first compound 0.007812 µg/mL	first compound 0.01562 µg/mL	first compound 0.03125 µg/mL
partner 1.25 µg/mL	0.863	0.828	0.641
partner 2.5 µg/mL	0.775	0.804	0.634
partner 5 µg/mL	0.669	0.63	0.559

fitness, S. pneumoniae D39V [2]
Settings	first compound 0.0625 µg/mL	first compound 0.07 µg/mL	first compound 0.125 µg/mL	first compound 0.14 µg/mL	first compound 0.25 µg/mL	first compound 0.28 µg/mL
partner 1.25 µg/mL	0.543	0.171	0.332	0.088	0.139	0.102
partner 2.5 µg/mL	0.538	0.102	0.323	0.0599	0.13	0.0306
partner 5 µg/mL	0.485	0.0461	0.288	0.057	0.132	0.0557
